Assay results as given in patent US4442044A, “Process for preparing monoesters and diesters of N-alkyl substituted amino methyl phosphonic acid” (priority 1983, dated 1984).

Legend:
Assay in all cases: post-emergent herbicidal activity, greenhouse
Format in all cases: in vivo
Sugar Beet = conditions: Table II
How it was run: (§1)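 Seeds or propagules sown in compacted top soil, grown 2–3 weeks in greenhouse, then sprayed with compound solution/suspension containing ~0.4% emulsifier at tabulated rates. Injury scored visually versus untreated controls at ~2 and 4 weeks after treatment, expressed as a herbicidal activity index.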

Yellow Nutsedge = conditions: Table I, 4 WAT
How it was run: as §1

Hemp Sesbania = conditions: Table II
How it was run: as §1

Lambsquarters = system: Lambsquarters
How it was run: as §1

Crabgrass = conditions: Table II
How it was run: as §1

Sorghum = conditions: Table II
How it was run: as §1

Soybean = conditions: Table II
How it was run: as §1

Velvetleaf = system: Velvetleaf
How it was run: as §1

Quackgrass = conditions: Table I, 4 WAT
How it was run: as §1

Panicum Spp = conditions: Table II
How it was run: as §1

Downy Brome = system: Downy Brome
How it was run: as §1

Barnyardgrass = system: Barnyardgrass
How it was run: as §1

Smartweed = system: Smartweed
How it was run: as §1

Johnsongrass = conditions: Table I, 4 WAT
How it was run: as §1

Rice = conditions: Table II
How it was run: as §1

Cocklebur = system: Cocklebur
How it was run: as §1

Wild Buckwheat = conditions: Table II
How it was run: as §1

Canada Thistle = conditions: Table I, 4 WAT
How it was run: as §1

Morningglory = system: Morningglory
How it was run: as §1

Wheat = conditions: Table II
How it was run: as §1

With `CC(C#N)OP(=O)(CNCC#N)OC(C)C#N` (stereo not drawn) [Example 12, phosphonic acid, [[(cyanomethyl)amino]-methyl],bis 1-cyanoethyl ester] the “post-emergent herbicidal activity index” value (Sugar Beet; 2 WAT, 0.28 kg/h) was 0 (0-24% control), the “post-emergent herbicidal activity index” value (Sugar Beet; 4 WAT, 1.12 kg/h) was 0 (0-24% control) and the “post-emergent herbicidal activity index” value (Sugar Beet; 4 WAT, 5.6 kg/h) was 1 (25-49% control). For the same compound, the “post-emergent herbicidal activity index” value (Yellow Nutsedge; 5.6 kg/h) was 3 (75-99% control), the “post-emergent herbicidal activity index” value (Yellow Nutsedge; 11.2 kg/h) was 3 (75-99% control) and the “post-emergent herbicidal activity index” value (Hemp Sesbania; 2 WAT, 0.28 kg/h) was 0 (0-24% control). For the same compound, the “post-emergent herbicidal activity index” value (Hemp Sesbania; 4 WAT, 1.12 kg/h) was 0 (0-24% control), the “post-emergent herbicidal activity index” value (Hemp Sesbania; 4 WAT, 5.6 kg/h) was 0 (0-24% control) and the “post-emergent herbicidal activity index” value (Lambsquarters; Table I, 4 WAT, 5.6 kg/h) was 3 (75-99% control). The “post-emergent herbicidal activity index” value (Lambsquarters; Table I, 4 WAT, 11.2 kg/h) was 2 (50-74% control), the “post-emergent herbicidal activity index” value (Lambsquarters; Table II, 2 WAT, 0.28 kg/h) was 1 (25-49% control) and the “post-emergent herbicidal activity index” value (Lambsquarters; Table II, 4 WAT, 1.12 kg/h) was 2 (50-74% control). For the same compound, the “post-emergent herbicidal activity index” value (Lambsquarters; Table II, 4 WAT, 5.6 kg/h) was 4 (100% control), the “post-emergent herbicidal activity index” value (Crabgrass; 2 WAT, 0.28 kg/h) was 0 (0-24% control) and the “post-emergent herbicidal activity index” value (Crabgrass; 4 WAT, 1.12 kg/h) was 2 (50-74% control). For the same compound, the “post-emergent herbicidal activity index” value (Crabgrass; 4 WAT, 5.6 kg/h) was 2 (50-74% control), the “post-emergent herbicidal activity index” value (Sorghum; 2 WAT, 0.28 kg/h) was 1 (25-49% control) and the “post-emergent herbicidal activity index” value (Sorghum; 4 WAT, 1.12 kg/h) was 3 (75-99% control). For the same compound, the “post-emergent herbicidal activity index” value (Sorghum; 4 WAT, 5.6 kg/h) was 4 (100% control), the “post-emergent herbicidal activity index” value (Soybean; 2 WAT, 0.28 kg/h) was 0 (0-24% control) and the “post-emergent herbicidal activity index” value (Soybean; 4 WAT, 1.12 kg/h) was 1 (25-49% control). For the same compound, the “post-emergent herbicidal activity index” value (Soybean; 4 WAT, 5.6 kg/h) was 1 (25-49% control), the “post-emergent herbicidal activity index” value (Velvetleaf; Table I, 4 WAT, 5.6 kg/h) was 2 (50-74% control) and the “post-emergent herbicidal activity index” value (Velvetleaf; Table I, 4 WAT, 11.2 kg/h) was 2 (50-74% control). The “post-emergent herbicidal activity index” value (Velvetleaf; Table II, 2 WAT, 0.28 kg/h) was 0 (0-24% control), the “post-emergent herbicidal activity index” value (Velvetleaf; Table II, 4 WAT, 1.12 kg/h) was 1 (25-49% control) and the “post-emergent herbicidal activity index” value (Velvetleaf; Table II, 4 WAT, 5.6 kg/h) was 2 (50-74% control). The “post-emergent herbicidal activity index” value (Quackgrass; 5.6 kg/h) was 1 (25-49% control), the “post-emergent herbicidal activity index” value (Quackgrass; 11.2 kg/h) was 2 (50-74% control) and the “post-emergent herbicidal activity index” value (Panicum Spp; 2 WAT, 0.28 kg/h) was 0 (0-24% control). The “post-emergent herbicidal activity index” value (Panicum Spp; 4 WAT, 1.12 kg/h) was 0 (0-24% control), the “post-emergent herbicidal activity index” value (Panicum Spp; 4 WAT, 5.6 kg/h) was 1 (25-49% control) and the “post-emergent herbicidal activity index” value (Downy Brome; Table I, 4 WAT, 5.6 kg/h) was 2 (50-74% control). The “post-emergent herbicidal activity index” value (Downy Brome; Table I, 4 WAT, 11.2 kg/h) was 1 (25-49% control), the “post-emergent herbicidal activity index” value (Downy Brome; Table II, 2 WAT, 0.28 kg/h) was 0 (0-24% control) and the “post-emergent herbicidal activity index” value (Downy Brome; Table II, 4 WAT, 1.12 kg/h) was 0 (0-24% control). The “post-emergent herbicidal activity index” value (Downy Brome; Table II, 4 WAT, 5.6 kg/h) was 3 (75-99% control), the “post-emergent herbicidal activity index” value (Barnyardgrass; Table I, 4 WAT, 5.6 kg/h) was 2 (50-74% control) and the “post-emergent herbicidal activity index” value (Barnyardgrass; Table I, 4 WAT, 11.2 kg/h) was 3 (75-99% control). The “post-emergent herbicidal activity index” value (Barnyardgrass; Table II, 2 WAT, 0.28 kg/h) was 0 (0-24% control), the “post-emergent herbicidal activity index” value (Barnyardgrass; Table II, 4 WAT, 1.12 kg/h) was 1 (25-49% control) and the “post-emergent herbicidal activity index” value (Barnyardgrass; Table II, 4 WAT, 5.6 kg/h) was 3 (75-99% control). The “post-emergent herbicidal activity index” value (Smartweed; Table I, 4 WAT, 5.6 kg/h) was 4 (100% control), the “post-emergent herbicidal activity index” value (Smartweed; Table I, 4 WAT, 11.2 kg/h) was 4 (100% control) and the “post-emergent herbicidal activity index” value (Smartweed; Table II, 2 WAT, 0.28 kg/h) was 0 (0-24% control). For the same compound, the “post-emergent herbicidal activity index” value (Smartweed; Table II, 4 WAT, 1.12 kg/h) was 0 (0-24% control), the “post-emergent herbicidal activity index” value (Smartweed; Table II, 4 WAT, 5.6 kg/h) was 2 (50-74% control) and the “post-emergent herbicidal activity index” value (Johnsongrass; 5.6 kg/h) was 4 (100% control). For the same compound, the “post-emergent herbicidal activity index” value (Johnsongrass; 11.2 kg/h) was 3 (75-99% control), the “post-emergent herbicidal activity index” value (Rice; 2 WAT, 0.28 kg/h) was 0 (0-24% control) and the “post-emergent herbicidal activity index” value (Rice; 4 WAT, 1.12 kg/h) was 0 (0-24% control). The “post-emergent herbicidal activity index” value (Rice; 4 WAT, 5.6 kg/h) was 2 (50-74% control), the “post-emergent herbicidal activity index” value (Cocklebur; Table I, 4 WAT, 5.6 kg/h) was 2 (50-74% control) and the “post-emergent herbicidal activity index” value (Cocklebur; Table I, 4 WAT, 11.2 kg/h) was 2 (50-74% control). For the same compound, the “post-emergent herbicidal activity index” value (Cocklebur; Table II, 2 WAT, 0.28 kg/h) was 0 (0-24% control), the “post-emergent herbicidal activity index” value (Cocklebur; Table II, 4 WAT, 1.12 kg/h) was 1 (25-49% control) and the “post-emergent herbicidal activity index” value (Cocklebur; Table II, 4 WAT, 5.6 kg/h) was 3 (75-99% control). The “post-emergent herbicidal activity index” value (Wild Buckwheat; 2 WAT, 0.28 kg/h) was 0 (0-24% control), the “post-emergent herbicidal activity index” value (Wild Buckwheat; 4 WAT, 1.12 kg/h) was 1 (25-49% control) and the “post-emergent herbicidal activity index” value (Wild Buckwheat; 4 WAT, 5.6 kg/h) was 0 (0-24% control). For the same compound, the “post-emergent herbicidal activity index” value (Canada Thistle; 5.6 kg/h) was 2 (50-74% control), the “post-emergent herbicidal activity index” value (Canada Thistle; 11.2 kg/h) was 2 (50-74% control) and the “post-emergent herbicidal activity index” value (Morningglory; Table I, 4 WAT, 5.6 kg/h) was 2 (50-74% control). The “post-emergent herbicidal activity index” value (Morningglory; Table I, 4 WAT, 11.2 kg/h) was 2 (50-74% control), the “post-emergent herbicidal activity index” value (Morningglory; Table II, 2 WAT, 0.28 kg/h) was 0 (0-24% control) and the “post-emergent herbicidal activity index” value (Morningglory; Table II, 4 WAT, 1.12 kg/h) was 1 (25-49% control). The “post-emergent herbicidal activity index” value (Wheat; 2 WAT, 0.28 kg/h) was 0 (0-24% control), the “post-emergent herbicidal activity index” value (Wheat; 4 WAT, 1.12 kg/h) was 0 (0-24% control) and the “post-emergent herbicidal activity index” value (Wheat; 4 WAT, 5.6 kg/h) was 2 (50-74% control).
